Source: publication PMC5053523, “In Vitro Antibacterial Activity of Rhodanine Derivatives against Pathogenic Clinical Isolates” (PLoS ONE, 2016)
Counter-ions that a name gives are not always drawn. Like-named read-outs stand apart in the source and are kept apart here.

What was measured:
Mycobacterium smegmatis = test: Broth microdilution MIC/MBC, Mycobacterium smegmatis; format: cell-based; conditions: Mycolicibacterium smegmatis, ATCC14468
[1] = tested on: Vancomycin Resistant Staphylococcus aureus (VRSA); test: Broth microdilution MIC/MBC, VRSA; format: cell-based; conditions: VRSA
[2] = tested on: vancomycin resistant enterococci (VRE); test: Broth microdilution MIC50/MIC90, VRE panel; format: cell-based; conditions: Enterococcus, VRE
Bacillus Strains = test: Broth microdilution MIC50/MIC90 and MIC range, Bacillus strains panel; format: cell-based, Bacillus spp.; conditions: 10 Bacillus strains
Description: (§1) The broth microdilution technique was used, followed by subculturing on agar plates that were rhodanine—free. […] The MICs reported represent the lowest concentration of each compound necessary to inhibit bacterial growth and the MBCs represent the lowest concentration required to reduce the initial bacterial inoculum by ≥ 99.9%.

MRSA USA300 = test: MIC against MRSA USA300 with and without 4% human serum albumin; format: cell-based, Staphylococcus aureus; conditions: Staphylococcus aureus, read-out: MIC against MRSA USA300
Procedure: as §1, with “The minimum inhibitory concentration (MIC) and the minimum bactericidal concentration (MBC) of rhodanine compounds 1 to 7 were determined against various Gram-positive and Gram-negative pathogens (S1 Table) following the guidelines of the Clinical and Laboratory Standards Institute (CLSI)[4]. The broth” for “The broth”
The antimicrobial activity of rhodanine compounds in the presence of 4% human serum albumin (HSA) was tested against MRSA USA300. The MICs of rhodanine compounds and control antibiotics (vancomycin and daptomycin) were tested as described in the methods above using tryptic soy broth spiked with 4% HSA. We also synthesized and tested three more compounds, ethyl ester and amide of rhodanine 2 (Rh 8 and Rh 10, respectively) and ethyl ester of rhodanine 3 (Rh 9) to determine the influence of a carboxyl group modification toward anti-MRSA activity and human serum albumin (HSA) binding.

[3] = tested on: vancomycin resistant enterococci (VRE) E. faecium; test: Broth microdilution MIC/MBC, VRE E. faecium; format: cell-based
B. cereus = test: Broth microdilution MIC/MBC, B. cereus; format: cell-based
Description: The broth microdilution technique was used, followed by subculturing on agar plates that were rhodanine—free.

[4] = tested on: established methicillin-resistant S. epidermidis biofilm (ATCC 35984, NRS 101); test: Microtiter dish biofilm eradication assay (crystal violet); format: cell-based, Staphylococcus epidermidis; conditions: high concentrations (up to 8 X MIC), 24 h
Procedure: We used S. epidermidis ATCC 35984 (NRS 101), a high-slime producer isolated in septicemic patients, with colonized intravascular catheters from Tennessee, USA [10]. This strain is a multi-drug resistant strain, showing resistance to methicillin, erythromycin, kanamycin, gentamicin, clindamycin and trimethoprim. Briefly, an overnight culture of biofilm—producing MRSE was diluted 1:100 in a fresh medium containing 1% glucose in a 96-well tissue-culture treated plate. Bacteria were incubated at 37°C for 24 h to permit the formation of an adherent biofilm. The medium was removed and the biofilm was washed with PBS. Antibacterial drugs (vancomycin and linezolid) and rhodanine 2, at indicated concentration, were added and incubated again at 37°C for 24 h. Plates were washed again and biofilms were stained with 0.1% (wt/vol) crystal violet. Plates were washed with PBS, air-dried and biofilm mass was dissolved using 95% ethanol. The intensity of crystal violet was measured using a micro plate reader (SpectraMax i3x; Molecular Devices, Sunnyvale, CA, USA). Data are presented as the percent biofilm mass reduction in treated groups in relation to untreated wells.

B. licheniformis = test: Broth microdilution MIC/MBC, B. licheniformis; format: cell-based; conditions: Bacillus licheniformis
Clostridium difficile = test: MIC against Clostridium difficile, anaerobic broth dilution; format: cell-based; conditions: Clostridioides difficile
Procedure: Clinical isolates of C. difficile were cultured on anaerobic blood agar and incubated anaerobically using container gas pack system at 37° C for 48 hours. The colonies were then suspended in pre-reduced phosphate buffered saline (PBS) and adjusted to 0.5 McFarland standard then diluted 1:300 in pre-reduced Supplemented Brain Heart Infusion broth. The bacterial suspension was then transferred to each well of 96-well plates, the drugs were added to the first row of wells in the required concentrations and serially diluted along the plates. The plates were incubated again anaerobically using container gas pack system at 37° C for 48 hours. The (MIC) recorded was the lowest concentration of the drug showing no visible growth of the bacteria.

[5] = tested on: vancomycin resistant enterococci (VRE) E. faecalis; test: Broth microdilution MIC/MBC, VRE E. faecalis; format: cell-based

`CN[C@H](CC(C)C)C(=O)N[C@H]1C(=O)N[C@@H](CC(N)=O)C(=O)N[C@H]2C(=O)N[C@H]3C(=O)N[C@H](C(=O)N[C@H](C(=O)O)c4cc(O)cc(O)c4-c4cc3ccc4O)[C@H](O)c3ccc(c(Cl)c3)Oc3cc2cc(c3O[C@@H]2O[C@H](CO)[C@@H](O)[C@H](O)[C@H]2O[C@H]2C[C@](C)(N)[C@H](O)[C@H](C)O2)Oc2ccc(cc2Cl)[C@H]1O` [Vancomycin, vancomycin hydrochloride, reference compound] was tested, and the MBC (Mycobacterium smegmatis) was 16 µM, the MIC (Mycobacterium smegmatis) was 2 µM and the MBC [1] was > 64 µM. The MIC50 [1] was > 64 µM, the MIC90 [1] was > 64 µM and the MIC ([1]; VRSA 1) was > 64 µM. For the same molecule, the MIC ([1]; VRSA 2) was > 16 µM, the MIC ([1]; VRSA 3a) was > 16 µM and the MIC ([1]; VRSA 3b) was > 16 µM. For the same molecule, the MIC ([1]; VRSA 4) was > 64 µM, the MIC ([1]; VRSA 5) was 64 µM and the MIC ([1]; VRSA 6) was > 64 µM. The MIC ([1]; VRSA 7) was > 64 µM, the MIC ([1]; VRSA 8) was > 64 µM and the MIC ([1]; VRSA 9) was > 64 µM. The MIC ([1]; VRSA 10) was > 64 µM, the MIC ([1]; VRSA 11a) was > 64 µM and the MIC ([1]; VRSA 11b) was > 64 µM. The MIC ([1]; VRSA 12) was > 64 µM, the MIC ([1]; VRSA 13) was > 64 µM and the MIC50 [2] was > 64 µM. For the same molecule, the MIC90 [2] was > 64 µM, the MIC50 (Bacillus Strains) was < 0.5 µM and the MIC90 (Bacillus Strains) was < 0.5 µM. The MIC (MRSA USA300) was 0.5 µM, the MIC [3] was > 64 µM and the MIC ([3]; E. faecium E417 HM-965) was > 64/— μM. For the same molecule, the MIC ([3]; E. faecium E1071 NR-28978) was > 64/— μM, the MIC ([3]; E. faecium HM 968 Strain ERV102) was > 64/— μM and the MIC ([3]; E. faecium NR31914 Strain E0120) was > 64/— μM. The MBC (B. cereus; B. cereus BAG1O-2 NR-28582) was < 0.5/< 0.5 μM, the MIC (B. cereus; B. cereus BAG1O-2 NR-28582) was < 0.5/< 0.5 μM and the MBC (B. cereus; B. cereus BAG1X1-1 NR-28575) was < 0.5/< 0.5 μM. The MIC (B. cereus; B. cereus BAG1X1-1 NR-28575) was < 0.5/< 0.5 μM, the MBC (B. cereus; B. cereus G9241 NR-9564) was < 0.5/< 0.5 μM and the MIC (B. cereus; B. cereus G9241 NR-9564) was < 0.5/< 0.5 μM. For the same molecule, the MBC (B. cereus; B. cereus VD014 NR-22141) was < 0.5/< 0.5 μM, the MIC (B. cereus; B. cereus VD014 NR-22141) was < 0.5/< 0.5 μM and the MBC (B. cereus; B. cereus VD115 NR-22148) was < 0.5/< 0.5 μM. The MIC (B. cereus; B. cereus VD115 NR-22148) was < 0.5/< 0.5 μM, the MBC (B. cereus; B. cereus VD148 NR-22150) was < 0.5/< 0.5 μM and the MIC (B. cereus; B. cereus VD148 NR-22150) was < 0.5/< 0.5 μM. For the same molecule, the MBC (B. cereus; Bacillus cereus, B. cereus BAG1X2-1 NR-28578, read-out: MBC) was < 0.5 µM, the MIC (B. cereus; Bacillus cereus, B. cereus BAG1X2-1 NR-28578, read-out: MIC) was < 0.5 µM and the MBC (B. cereus; Bacillus cereus, NRS201, B. cereus NRS 201 NR-2488, read-out: MBC) was < 0.5 µM. The MIC (B. cereus; Bacillus cereus, NRS201, B. cereus NRS 201 NR-2488, read-out: MIC) was < 0.5 µM, the biofilm mass reduction [4] was “not significantly decreased” and the MBC (B. licheniformis; NCIB9375) was 2 µM. The MIC (B. licheniformis; NCIB9375) was < 0.5 µM, the MBC (B. licheniformis; NRS712) was < 0.5 µM and the MIC (B. licheniformis; NRS712) was < 0.5 µM. The MIC (Clostridium difficile; C. difficile HM-88) was 0.5 µM, the MIC (Clostridium difficile; C. difficile HM-745) was 0.125 µM and the MIC (Clostridium difficile; C. difficile HM-746) was 0.25 µM. The MIC (Clostridium difficile; C. difficile Isolate-1 NR-13427) was 1 µM, the MIC (Clostridium difficile; C. difficile Toxigenic Strain P8 NR-32888) was 0.5 µM and the MIC [5] was > 64 µM. The MIC ([5]; E. faecalis ERV103 HM-934) was > 64/— μM, the MIC ([5]; E. faecalis NR31972 Strain SF 28073) was > 64/— μM and the MIC ([5]; E. faecalis S613 HM-334) was > 64/— μM. The MIC ([5]; E. faecalis TX0104 HM-201) was > 64/— μM.
